Results taken from patent publication US20250352520A1, “USE OF DEXPRAMIPEXOLE FOR THE TREATMENT OF EOSINOPHILIC COPD” (Areteia Therapeutics, Inc., priority 2024, published 2025).

Procedure: Participants performed post-BD spirometry at specific visits as noted in the SOA.
After completing the pre-BD spirometry, participants inhaled four puffs of albuterol/salbutamol (site sourced) metered dose inhaler (approximately 100 μg albuterol/salbutamol base per actuation), with each actuation 1 minute apart. Post-BD spirometry was assessed within 15 to 30 minutes after inhalation of albuterol/salbutamol.

[1] = AECR≥0.5 patients, after 16 weeks
[2] = Week 16, <50% AEC reduction at Week 16
[3] = Week 16, <50% AEC reduction at Week 16 (N = 4), 150 mg BID

CCCN[C@@H]1CCc2nc(N)sc2C1 [Dexpramipexole, (6R)-2-amino-4,5,6,7-tetrahydro-6-(propylamino)benzothiazole]
Post-BD FEV1, absolute increase [1]: 220 mL
Post-BD FEV1, improvement compared to baseline [1]: 16.6%
Post-BD FEF25-75, absolute increase (AECR≥0.5 patients, week 16): 130 mL
Post-BD FEF25-75, average increase compared to baseline (AECR≥0.5 patients, week 16): 26.7%
Post-BD FVC, absolute increase (AECR≥0.5 patients, week 16): 226.7 mL
Post-BD FVC, average increase compared to baseline (AECR≥0.5 patients, week 16): 9.2%
Post-BD Peak Flow, average improvement compared to baseline (AECR≥0.5 patients, week 16): 40.2%
Post-BD FEV1 % change from baseline, Max [2]: 19%
Post-BD FEV1 % change from baseline, Mean ± SD [2]: −0.1± 21.10%
Post-BD FEV1 % change from baseline, Median [2]: 4.8%
Post-BD FEV1 % change from baseline, Min [2]: −29%
Post-BD FEV1 % change from baseline, Q1 [2]: −15%
Post-BD FEV1 % change from baseline, Q3 [2]: 15%
Post-BD FEV1 Observed, Max [2]: 1950 mL
Post-BD FEV1 Observed, Mean ± SD [2]: 1522.5 ± 546.34 mL
Post-BD FEV1 Observed, Median [2]: 1705.0 mL
Post-BD FEV1 Observed, Min [2]: 730 mL
Post-BD FEV1 Observed, Q1 [2]: 1170 mL
Post-BD FEV1 Observed, Q3 [2]: 1875 mL
Post-BD FEV1 change from baseline, Max [2]: 290 mL
Post-BD FEV1 change from baseline, Mean ± SD [2]: 40.0 ± 260.90 mL
Post-BD FEV1 change from baseline, Median [2]: 85.0 mL
Post-BD FEV1 change from baseline, Min [2]: -300 mL
Post-BD FEV1 change from baseline, Q1 [2]: -160 mL
Post-BD FEV1 change from baseline, Q3 [2]: 240 mL
Post bronchodilator Forced Expiratory Flow 25-75% (FEF25-75), % CFB (Percent change from baseline), Max [3]: 54%
Post bronchodilator Forced Expiratory Flow 25-75% (FEF25-75), % CFB (Percent change from baseline), Mean ± SD [3]: 9.7 ± 40.69%
Post bronchodilator Forced Expiratory Flow 25-75% (FEF25-75), % CFB (Percent change from baseline), Median [3]: 7.3%
Post bronchodilator Forced Expiratory Flow 25-75% (FEF25-75), % CFB (Percent change from baseline), Min [3]: −29%
Post bronchodilator Forced Expiratory Flow 25-75% (FEF25-75), % CFB (Percent change from baseline), Q1 [3]: −25%
Post bronchodilator Forced Expiratory Flow 25-75% (FEF25-75), % CFB (Percent change from baseline), Q3 [3]: 44%
Post bronchodilator Forced Expiratory Flow 25-75% (FEF25-75), CFB (Change from baseline), Max [3]: 290 mL/s
Post bronchodilator Forced Expiratory Flow 25-75% (FEF25-75), CFB (Change from baseline), Mean ± SD [3]: 90.0 ± 225.24 mL/s
Post bronchodilator Forced Expiratory Flow 25-75% (FEF25-75), CFB (Change from baseline), Median [3]: 90.0 mL/s
Post bronchodilator Forced Expiratory Flow 25-75% (FEF25-75), CFB (Change from baseline), Min [3]: -110 mL/s
Post bronchodilator Forced Expiratory Flow 25-75% (FEF25-75), CFB (Change from baseline), Q1 [3]: -105 mL/s
Post bronchodilator Forced Expiratory Flow 25-75% (FEF25-75), CFB (Change from baseline), Q3 [3]: 285 mL/s
Post bronchodilator Forced Expiratory Flow 25-75% (FEF25-75), Observed, Max [3]: 1090 mL/s
Post bronchodilator Forced Expiratory Flow 25-75% (FEF25-75), Observed, Mean ± SD [3]: 650.0 ± 382.19 mL/s
Post bronchodilator Forced Expiratory Flow 25-75% (FEF25-75), Observed, Median [3]: 635.0 mL/s
Post bronchodilator Forced Expiratory Flow 25-75% (FEF25-75), Observed, Min [3]: 240 mL/s
Post bronchodilator Forced Expiratory Flow 25-75% (FEF25-75), Observed, Q1 [3]: 340 mL/s
Post bronchodilator Forced Expiratory Flow 25-75% (FEF25-75), Observed, Q3 [3]: 960 mL/s
Post bronchodilator Forced Vital Capacity (FVC), % CFB (Percent change from baseline), Max [3]: 18%
Post bronchodilator Forced Vital Capacity (FVC), % CFB (Percent change from baseline), Mean ± SD [3]: 3.0 ± 14.06%
Post bronchodilator Forced Vital Capacity (FVC), % CFB (Percent change from baseline), Median [3]: 4.6%
Post bronchodilator Forced Vital Capacity (FVC), % CFB (Percent change from baseline), Min [3]: −16%
Post bronchodilator Forced Vital Capacity (FVC), % CFB (Percent change from baseline), Q1 [3]: −6%
Post bronchodilator Forced Vital Capacity (FVC), % CFB (Percent change from baseline), Q3 [3]: 12%
Post bronchodilator Forced Vital Capacity (FVC), CFB (Change from baseline), Max [3]: 450 mL
Post bronchodilator Forced Vital Capacity (FVC), CFB (Change from baseline), Mean ± SD [3]: 70.0 ± 388.16 mL
Post bronchodilator Forced Vital Capacity (FVC), CFB (Change from baseline), Median [3]: 150.0 mL
Post bronchodilator Forced Vital Capacity (FVC), CFB (Change from baseline), Min [3]: -470 mL
Post bronchodilator Forced Vital Capacity (FVC), CFB (Change from baseline), Q1 [3]: -180 mL
Post bronchodilator Forced Vital Capacity (FVC), CFB (Change from baseline), Q3 [3]: 320 mL
Post bronchodilator Forced Vital Capacity (FVC), Observed, Max [3]: 3460 mL
Post bronchodilator Forced Vital Capacity (FVC), Observed, Mean ± SD [3]: 3082.5 ± 447.84 mL
Post bronchodilator Forced Vital Capacity (FVC), Observed, Median [3]: 3165.0 mL
Post bronchodilator Forced Vital Capacity (FVC), Observed, Min [3]: 2540 mL
Post bronchodilator Forced Vital Capacity (FVC), Observed, Q1 [3]: 2715 mL
Post bronchodilator Forced Vital Capacity (FVC), Observed, Q3 [3]: 3450 mL
Post bronchodilator Peak Flow, % CFB (Percent change from baseline), Max [3]: 42%
Post bronchodilator Peak Flow, % CFB (Percent change from baseline), Mean ± SD [3]: 16.9 ± 28.64%
Post bronchodilator Peak Flow, % CFB (Percent change from baseline), Median [3]: 18.1%
Post bronchodilator Peak Flow, % CFB (Percent change from baseline), Min [3]: −10%
Post bronchodilator Peak Flow, % CFB (Percent change from baseline), Q1 [3]: −8%
Post bronchodilator Peak Flow, % CFB (Percent change from baseline), Q3 [3]: 42%
Post bronchodilator Peak Flow, CFB (Change from baseline), Max [3]: 150 L/min
Post bronchodilator Peak Flow, CFB (Change from baseline), Mean ± SD [3]: 51.5 ± 88.04 L/min
Post bronchodilator Peak Flow, CFB (Change from baseline), Median [3]: 46.0 L/min
Post bronchodilator Peak Flow, CFB (Change from baseline), Min [3]: -36 L/min
Post bronchodilator Peak Flow, CFB (Change from baseline), Q1 [3]: -22 L/min
Post bronchodilator Peak Flow, CFB (Change from baseline), Q3 [3]: 125 L/min
Post bronchodilator Peak Flow, Observed, Max [3]: 509 L/min
Post bronchodilator Peak Flow, Observed, Mean ± SD [3]: 326.0 ± 148.82 L/min
Post bronchodilator Peak Flow, Observed, Median [3]: 324.5 L/min
